Test results as given in patent publication US8383629B2, “Inhibitors of 11β-hydroxysteroid dehydrogenase type 1” (Vitae Pharmaceuticals, Inc., priority 2008, dated 2013).

Biological target: T1, human 11β-HSD1 (Homo sapiens, UniProt P28845)
T1 construct: expressed in transfected cells; host or cells: CHO cells (microsomes)
Assay: Inhibition of microsomal preparation of 11β-HSD1 (SPA, Biological Test Example 1)
Format: biochemical
Conditions: for inhibition at 0.111 µM: 111 nM; for IC50: microsomes from CHO cells overexpressing human 11β-HSD1, read-out: IC50 Range; for inhibition at 0.1 µM: 100 nM
Procedure, shortened: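 Microsomes from CHO cells overexpressing human 11β-HSD1 reduced [3H]cortisone (160 nM in substrate solution, with 2 mM NADPH, HEPES pH 7.4) for 90 min at rt after a 10 min compound preincubation. Compounds were run as 8-point half-log DMSO dilutions from 0.1 mM. 18β-glycyrrhetinic acid stopped the reaction, and anti-cortisol antibody SPA beads read [3H]cortisol.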

T1 sequence (P28845 whole entry): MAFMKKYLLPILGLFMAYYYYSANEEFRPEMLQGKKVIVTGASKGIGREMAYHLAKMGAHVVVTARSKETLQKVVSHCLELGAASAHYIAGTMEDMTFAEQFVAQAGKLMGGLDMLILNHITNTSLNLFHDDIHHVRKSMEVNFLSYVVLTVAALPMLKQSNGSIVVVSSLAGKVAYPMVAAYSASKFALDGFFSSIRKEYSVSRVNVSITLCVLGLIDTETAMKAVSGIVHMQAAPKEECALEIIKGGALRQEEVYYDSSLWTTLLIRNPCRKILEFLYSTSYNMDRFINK

Compound	inhibition at 0.111 µM [%]	IC50 [nM]	inhibition at 0.1 µM [%]
COc1ccc2c(c1)CCNC21CCN(C(=O)CCc2ccccc2C(F)(F)F)CC1 [EXAMPLE 62, 1-(6-methoxy-3,4-dihydro-2H-spiro[isoquinoline-1,4′-piperidine]-1′-yl)-3-(2-(trifluoromethyl)phenyl)propan-1-one]	87.2	< 100	–
COc1ccc2c(c1)CCNC21CCN(C(=O)CCc2ccccc2C)CC1 [EXAMPLE 63, 1-(6-methoxy-3,4-dihydro-2H-spiro[isoquinoline-1,4′-piperidine]-1′-yl)-3-o-tolylpropane-1-one]	22.5	100 to 1000	–
O=C(CCc1ccccc1C(F)(F)F)N1CCC2(CC1)CC(O)c1cccc(Br)c12 (stereo not shown) [EXAMPLE 64, 1-(7-bromo-3-hydroxy-2,3-dihydrospiro[indene-1,4′-piperidine]-1′-yl)-3-(2-(trifluoromethyl)phenyl)propan-1-one]	100	< 100	–
O=C1NC2(CCN(C(=O)CCc3ccccc3C(F)(F)F)CC2)c2c(Cl)cccc21 [EXAMPLE 65, 7-chloro-1′-(3-(2-(trifluoromethyl)phenyl)propanoyl)spiro[isoindoline-1,4′-piperidin]-3-one]	87.7	< 100	–
NC1CC2(CCN(C(=O)CCc3ccccc3C(F)(F)F)CC2)c2c(Br)cccc21 (stereo not shown) [EXAMPLE 66, 1-(3-amino-7-bromo-2,3-dihydrospiro[indene-1,4′-piperidine]-1′-yl)-3-(2-(trifluoromethyl)phenyl)propan-1-one]	92.1	< 100	–
O=C(CCc1ccccc1C(F)(F)F)N1CCC2(CC1)C(=O)Nc1ccccc12 [EXAMPLE 67, 1′-(3-(2-(trifluoromethyl)phenyl)propanoyl)spiro[indoline-3,4′-piperidin]-2-one]	–	< 100	100
CNC(=O)N1Cc2ccccc2C2(CCN(C(=O)CCc3ccccc3C(F)(F)F)CC2)C1 [EXAMPLE 68, N-methyl-1′-(3-(2-(trifluoromethyl)phenyl)propanoyl)-1H-spiro[isoquinoline-4,4′-piperidine]-2(3H)-carboxamide]	81.5	< 100	–
CN1C(=O)C2(CCN(C(=O)CCc3ccccc3C(F)(F)F)CC2)c2ccccc21 [EXAMPLE 69, 1-methyl-1′-(3-(2-(trifluoromethyl)phenyl)propanoyl)spiro[indoline-3,4′-piperidin]-2-one]	93.8	< 100	93.5
O=C1NC2(CCN(C(=O)CCc3ccccc3C(F)(F)F)CC2)c2c(Br)cccc21 [EXAMPLE 71, 7-bromo-1′-(3-(2-(trifluoromethyl)phenyl)propanoyl)spiro[isoindoline-1,4′-piperidin]-3-one]	93.9	< 100	–
O=C1NC2(CCN(C(=O)CCc3ccccc3C(F)(F)F)CC2)c2c(Cl)cc(Cl)cc21 [EXAMPLE 72, 5,7-dichloro-1′-(3-(2-(trifluoromethyl)phenyl)propanoyl)spiro[isoindoline-1,4′-piperidin]-3-one]	82.4	< 100	–
O=C(O)CC1CC2(CCN(C(=O)CCc3ccccc3C(F)(F)F)CC2)c2c(Cl)cccc21 (stereo not shown) [EXAMPLE 73, 2-(7-chloro-1′-(3-(2-(trifluoromethyl)phenyl)propanoyl)-2,3-dihydrospiro[indene-1,4′-piperidine]-3-yl)acetic acid]	95.4	< 100	96.6
O=C(O)CC1CC2(CCN(C(=O)CCc3ccccc3Cl)CC2)c2c(Cl)cccc21 (stereo not shown) [EXAMPLE 74, 2-(7-chloro-1′-(3-(2-chlorophenyl)propanoyl)-2,3-dihydrospiro[indene-1,4′-piperidine]-3-yl)acetic acid]	89.5	< 100	–
O=C(O)CC1CC2(CCN(C(=O)CCc3ccc(Cl)cc3Cl)CC2)c2c(Cl)cccc21 (stereo not shown) [EXAMPLE 75, 2-(7-chloro-1′-(3-(2,4-dichlorophenyl)propanoyl)-2,3-dihydrospiro[indene-1,4′-piperidine]-3-yl)acetic acid]	52.2	< 100	–
COC(=O)c1ccc2c(c1)C1(CCN(C(=O)CCc3ccccc3C(F)(F)F)CC1)C(=O)N2C [EXAMPLE 76, 1-methyl-2-oxo-1′-(3-(2-(trifluoromethyl)phenyl)propanoyl)spiro[indoline-3,4′-piperidine]-5-carboxylate]	60	< 100	–
CN1C(=O)C2(CCN(C(=O)CCc3ccccc3C(F)(F)F)CC2)c2cc(C(N)=O)ccc21 [EXAMPLE 77, 1-methyl-2-oxo-1′-(3-(2-(trifluoromethyl)phenyl)propanoyl)spiro[indoline-3,4′-piperidine]-5-carboxamide]	26.3	100 to 1000	–
CCN1C(=O)C2(CCN(C(=O)CCc3ccccc3C(F)(F)F)CC2)c2cc(C(=O)OC)ccc21 [EXAMPLE 78, Methyl 1-ethyl-2-oxo-1′-(3-(2-(trifluoromethyl)phenyl)propanoyl)spiro[indoline-3,4′-piperidine]-5-carboxylate]	52.4	< 100	–

Compound	inhibition at 0.111 µM [%]	IC50 [nM]	inhibition at 0.1 µM [%]
CN1C(=O)C2(CCN(C(=O)CCc3ccccc3C(F)(F)F)CC2)c2cc(C#N)ccc21 [EXAMPLE 79, 1-methyl-2-oxo-1′-(3-(2-(trifluoromethyl)phenyl)propanoyl)spiro[indoline-3,4′-piperidine]-5-carbonitrile]	51.4	100 to 1000	–
NC(=O)CC1CC2(CCN(C(=O)CCc3ccccc3C(F)(F)F)CC2)c2c(Cl)cccc21 (stereo not shown) [EXAMPLE 80, 2-(7-chloro-1′-(3-(2-(trifluoromethyl)phenyl)propanoyl)-2,3-dihydrospiro[indene-1,4′-piperidine]-3-yl)acetamide]	95.1	< 100	–
CCOC(=O)CC1CC2(CCN(C(=O)N(CC)Cc3c(F)cccc3Cl)CC2)c2c(Br)cccc21 (stereo not shown) [EXAMPLE 81]	59.2	< 100	–
CCOC(=O)CC1CC2(CCN(C(=O)NCc3ccccc3OCC)CC2)c2c(Br)cccc21 (stereo not shown) [EXAMPLE 82, Ethyl 2-(7-bromo-1′-(2-ethoxybenzylcarbamoyl)-2,3-dihydrospiro[indene-1,4′-piperidine]-3-yl)acetate]	28.6	100 to 1000	–
O=C(O)CC1CC2(CCN(C(=O)NCc3cc(F)c(F)cc3F)CC2)c2c(Br)cccc21 (stereo not shown) [EXAMPLE 83, 2-(7-bromo-1′-(2,4,5-trifluorobenzylcarbamoyl)-2,3-dihydrospiro[indene-1,4′-piperidine]-3-yl)acetic acid]	10.9	100 to 1000	–
CCOc1ccccc1CNC(=O)N1CCC2(CC1)CC(CC(=O)O)c1cccc(Br)c12 (stereo not shown) [EXAMPLE 84, 2-(7-bromo-1′-(2-ethoxybenzylcarbamoyl)-2,3-dihydrospiro[indene-1,4′-piperidine]-3-yl)acetic acid]	42.6	100 to 1000	–
O=C(NCc1ccccc1-c1ccccc1)N1CCC2(CC1)OCc1ccccc12 [EXAMPLE 85, N-(biphenyl-2-ylmethyl)-3H-spiro[isobenzofuran-1,4′-piperidine]-1′-carboxamide]	19.4	100 to 1000	–
CCOC(=O)CC1CC2(CCN(C(=O)NCc3ccccc3C)CC2)c2c(Br)cccc21 (stereo not shown) [EXAMPLE 86, Ethyl 2-(7-bromo-1′(2-methylbenzylcarbamoyl)-2,3-dihydrospiro[indene-1,4′-piperidine]-3-yl)acetate]	58.7	< 100	–
Cc1ccccc1CNC(=O)N1CCC2(CC1)CC(CC(=O)O)c1cccc(Br)c12 (stereo not shown) [EXAMPLE 87, 2-(7-bromo-1′-(2-methylbenzylcarbamoyl)-2,3-dihydrospiro[indene-1,4′-piperidine]-3-yl)acetic acid]	57.2	< 100	–
Cc1ccccc1CNC(=O)N1CCC2(CC1)CC(CC(=O)N1CCN(C(=O)OC(C)(C)C)CC1)c1cccc(Br)c12 (stereo not shown) [EXAMPLE 88, tert-butyl 4-(2-(7-bromo-1′-(2-methylbenzylcarbamoyl)-2,3-dihydrospiro[indene-1,4′-piperidine]-3-yl)acetyl)piperazine-1-carboxylate]	66.2	< 100	–
CCOC(=O)CC1CC2(CCN(C(=O)NCc3c(C)cccc3Cl)CC2)c2c(Br)cccc21 (stereo not shown) [EXAMPLE 89, Ethyl 2-(7-bromo-1′-(2-chloro-6-methylbenzylcarbamoyl)-2,3-dihydrospiro[indene-1,4′-piperidine]-3-yl)acetate]	61.2	< 100	–
Cc1ccccc1CNC(=O)N1CCC2(CC1)CC(CC(=O)N1CCNCC1)c1cccc(Br)c12 (stereo not shown) [EXAMPLE 90, 7-bromo-N-(2-methylbenzyl)-3-(2-oxo-2-(piperazin-1-yl)ethyl)-2,3-dihydrospiro[indene-1,4′-piperidine]-1′-carboxamide]	52.4	100 to 1000	–
Cc1cccc(Cl)c1CNC(=O)N1CCC2(CC1)CC(CC(=O)O)c1cccc(Br)c12 (stereo not shown) [EXAMPLE 91, 2-(7-bromo-1′-(2-chloro-6-methylbenzylcarbamoyl)-2,3-dihydrospiro[indene-1,4′-piperidine]-3-yl)acetic acid]	64.1	< 100	–
CCOC(=O)CC1CC2(CCN(C(=O)NCc3ccccc3C(F)(F)F)CC2)c2c(Br)cccc21 (stereo not shown) [EXAMPLE 92, Ethyl 2-(7-bromo-1′-(2-(trifluoromethyl)benzylcarbamoyl)-2,3-dihydrospiro[indene-1,4′-piperidine]-3-yl)acetate]	70.5	< 100	–
CCOC(=O)CC1CC2(CCN(C(=O)NCc3ccccc3S(C)(=O)=O)CC2)c2c(Br)cccc21 (stereo not shown) [EXAMPLE 93, Ethyl 2-(7-bromo-1′-(2-(methylsulfonyl)benzylcarbamoyl)-2,3-dihydrospiro[indene-1,4′-piperidine]-3-yl)acetate]	18.5	100 to 1000	–
